The values that follow come from article PMC7594721, “Synthesis and biological activity of 2-cyanoacrylamide derivatives tethered to imidazopyridine as TAK1 inhibitors” (Journal of Enzyme Inhibition and Medicinal Chemistry, 2020).

One assay addresses T1, TAK1 (Homo sapiens, UniProt O43318).
T1 construct: purchased Invitrogen (Thermo Fisher Scientific)
T1 sequence (O43318 with tags, fused parts or gaps limits assumed): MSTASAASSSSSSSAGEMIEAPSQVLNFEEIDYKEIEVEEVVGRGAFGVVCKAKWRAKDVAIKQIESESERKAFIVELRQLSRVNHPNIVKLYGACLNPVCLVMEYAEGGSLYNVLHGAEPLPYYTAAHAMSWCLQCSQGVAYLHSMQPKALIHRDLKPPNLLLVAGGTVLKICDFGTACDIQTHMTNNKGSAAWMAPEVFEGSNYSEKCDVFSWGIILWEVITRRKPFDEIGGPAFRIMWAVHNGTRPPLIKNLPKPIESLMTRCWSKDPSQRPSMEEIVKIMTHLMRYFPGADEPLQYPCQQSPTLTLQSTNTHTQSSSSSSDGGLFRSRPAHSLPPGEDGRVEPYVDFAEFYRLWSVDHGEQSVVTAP
The assay can be described thus: TAK1 LanthaScreen Eu Kinase Binding Assay (Invitrogen; Table 1 calls it TAK1 enzymatic assay). The settings on record: for IC50: read-out: IC50 against TAK1; for TAK1 potency, SAR result in words: Table 1 SAR discussion. Here is the method:
Kinase assays were performed by Invitrogen (now Thermo Fisher Scientific, Waltham, MA) or Reaction Biology Corp. (Malvern, PA). Inhibitory activity of compounds for TAK1 was evaluated using LanthaScreen® Eu Kinase Binding Assay (Invitrogen, Waltham, MA). The kinase profile of compound 13h was determined by the kinase HotSpot Profiling service of Reaction Biology Corporation. All assays were performed at Km for ATP.
Table 1. TAK1 enzymatic assay with imidazopyridine derivatives. ^a In-vitro enzymatic assay data obtained from Invitrogen^TM.
Background: Time-resolved FRET reads energy transfer from a long-lived donor to a nearby acceptor.

The next assay has as its system MDA-MB-231 cells. The assay can be described thus: Caspase-3/7 assay (Apo-ONE). The class given is cell-based. The following applies: 10 µM, presence of TNFα (10 ng/ml), 24 h, MDA-MB-231, positive control. Here is the method: MDA-MB-231 cells were obtained from the Korean Cell Line Bank. Cells were cultured in Roswell Park Memorial Institute (RPMI) 1640 medium containing 10% foetal bovine serum and 1% penicillin/streptomycin at 37 °C with 5% CO2 under humidified atmosphere.
The assay was performed using Apo-ONE® Homogeneous Caspase-3/7 Assay kits (Catalogue No. G7790, Promega, Madison, WI). MDA-MB-231 cells in a concentration of 5000 cells/100 µl were seeded in each well of a black 96-well plate and starved after adhering to the plate. The cells were incubated for 24 h, and the serum-starved cells were treated with either Takinib or 13h in the presence or absence of TNFα (10 ng/ml). All samples and the control contained DMSO in a final concentration of 0.5%. After another 24 h of incubation, 100 µL of Apo-ONE® caspase-3/7 reagent was added to each well, and the cells were incubated at room temperature in darkness for 2 h. Fluorescence was then measured at 530 nm with excitation at 485 nm using a FlexStation 3 Multi-Mode microplate reader (Molecular Devices). Statistical analyses of the data included a one-way ANOVA, followed by Tukey’s multiple comparison test.

As a reminder, the IC50 is the concentration that inhibits the measured activity by half. Turning to `C=CC(=O)N[C@@H]1CCN(c2nc(Nc3ccc(N4CCN(C)CC4)cc3)ncc2Cl)C1` [Compound 6], the concentration for half-maximal inhibition (IC50) on TAK1 came to 413 nM. `CN1CCN(c2ccc(-c3nc4c(N5CC[C@@H](NC(=O)/C(C#N)=C/c6ccccc6)C5)c(Cl)cnc4[nH]3)cc2)CC1` [Compound 13a, (R,E)-N-(1-(6-chloro-2-(4-(4-methylpiperazin-1-yl)phenyl)-3H-imidazo[4,5-b]pyridin-7-yl)pyrrolidin-3-yl)-2-cyano-3-phenylacrylamide]: the “IC50 fold lower than the IC50 of 14” value at TAK1 (TAK1, compared with 14) is on record as approximately 2.5 fold. Also, on TAK1, the IC50 came to 385 nM.

Regarding `Cc1csc(/C=C(\C#N)C(=O)N[C@@H]2CCN(c3c(Cl)cnc4[nH]c(-c5ccc(N6CCN(C)CC6)cc5)nc34)C2)n1` [Compound 13b, (R,E)-N-(1-(6-chloro-2-(4-(4-methylpiperazin-1-yl)phenyl)-3H-imidazo[4,5-b]pyridin-7-yl)pyrrolidin-3-yl)-2-cyano-3-(4-methylthiazol-2-yl)acrylamide], on TAK1, the “TAK1 potency, SAR result in words” value is recorded as “highest potency”.

Turning to `CN1CCN(c2ccc(-c3nc4c(N5CC[C@@H](NC(=O)/C(C#N)=C/c6cccc(F)n6)C5)c(Cl)cnc4[nH]3)cc2)CC1` [Compound 13f, (R,E)-N-(1-(6-chloro-2-(4-(4-methylpiperazin-1-yl)phenyl)-3H-imidazo[4,5-b]pyridin-7-yl)pyrrolidin-3-yl)-2-cyano-3–(6-fluoropyridin-2-yl)acrylamide], at TAK1, the “TAK1 potency, SAR result in words” value was “maintained or improved potency”. Same read-out and setting: to `CN1CCN(c2ccc(-c3nc4c(N5CC[C@@H](NC(=O)/C(C#N)=C/c6cccc(Cl)n6)C5)c(Cl)cnc4[nH]3)cc2)CC1` [Compound 13g, (R,E)-N-(1–(6-chloro-2–(4–(4-methylpiperazin-1-yl)phenyl)-3H-imidazo[4,5-b]pyridin-7-yl)pyrrolidin-3-yl)-3-(6-chloropyridin-2-yl)-2-cyanoacrylamide] belongs “increased”.

For the compound `CN1CCN(c2ccc(-c3nc4c(N5CC[C@@H](NC(=O)/C(C#N)=C/c6cccc(C7CC7)n6)C5)c(Cl)cnc4[nH]3)cc2)CC1` [Compound 13i, (R,E)-N-(1–(6-chloro-2–(4-(4-methylpiperazin-1-yl)phenyl)-3H-imidazo[4,5-b]pyridin-7-yl)pyrrolidin-3-yl)-2-cyano-3-(6-cyclopropylpyridin-2-yl)acrylamide], the “TAK1 potency, SAR result in words” value on TAK1 was “increased”. With `Cc1ccc(/C=C(\C#N)C(=O)N[C@@H]2CCN(c3c(Cl)cnc4[nH]c(-c5ccc(N6CCN(C)CC6)cc5)nc34)C2)nc1` [Compound 13j, (R,E)-N-(1–(6-chloro-2–(4-(4-methylpiperazin-1-yl)phenyl)-3H-imidazo[4,5-b]pyridin-7-yl)pyrrolidin-3-yl)-2-cyano-3-(5-methylpyridin-2-yl)acrylamide], the “TAK1 potency, SAR result in words” value on TAK1 is recorded as “excellent”.

On to `COc1ccc(/C=C(\C#N)C(=O)N[C@@H]2CCN(c3c(Cl)cnc4[nH]c(-c5ccc(N6CCN(C)CC6)cc5)nc34)C2)nc1` [Compound 13k, (R,E)-N-(1–(6-chloro-2–(4-(4-methylpiperazin-1-yl)phenyl)-3H-imidazo[4,5-b]pyridin-7-yl)pyrrolidin-3-yl)-2-cyano-3-(5-methoxypyridin-2-yl)acrylamide], for which the “TAK1 potency, SAR result in words” value at TAK1 is “increased”. On the same count and under the same terms, to `Cc1ccnc(/C=C(\C#N)C(=O)N[C@@H]2CCN(c3c(Cl)cnc4[nH]c(-c5ccc(N6CCN(C)CC6)cc5)nc34)C2)c1` [Compound 13l, (R,E)-N-(1-(6-chloro-2-(4-(4-methylpiperazin-1-yl)phenyl)-3H-imidazo[4,5-b]pyridin-7-yl)pyrrolidin-3-yl)-2-cyano-3–(4-methylpyridin-2-yl)acrylamide] belongs “excellent”.

In the case of `CCCn1/c(=N/C(=O)c2cccc(C(N)=O)c2)[nH]c2ccccc21` [Takinib, reference compound], the caspase-3/7 activity entry in the assay with MDA-MB-231 cells is “significant caspase activation”. As for “(R)-N-(1–(5-chloro-2-((4–(4-methylpiperazin-1-yl)phenyl)amino)pyrimidin-4-yl)pyrrolidin-3-yl)acrylamide [Compound 14]”, the “IC50 relative to that of the pyrimidine (6)” value on TAK1 (TAK1, compared with 6) is “approximately twice”. In addition, the IC50 on TAK1 turned out to be 961 nM.
